Test [1] concerns the target T1, AHR (Mus musculus, UniProt P30561).
T1 sequence (P30561 1-848 P471L/N533S/M589L): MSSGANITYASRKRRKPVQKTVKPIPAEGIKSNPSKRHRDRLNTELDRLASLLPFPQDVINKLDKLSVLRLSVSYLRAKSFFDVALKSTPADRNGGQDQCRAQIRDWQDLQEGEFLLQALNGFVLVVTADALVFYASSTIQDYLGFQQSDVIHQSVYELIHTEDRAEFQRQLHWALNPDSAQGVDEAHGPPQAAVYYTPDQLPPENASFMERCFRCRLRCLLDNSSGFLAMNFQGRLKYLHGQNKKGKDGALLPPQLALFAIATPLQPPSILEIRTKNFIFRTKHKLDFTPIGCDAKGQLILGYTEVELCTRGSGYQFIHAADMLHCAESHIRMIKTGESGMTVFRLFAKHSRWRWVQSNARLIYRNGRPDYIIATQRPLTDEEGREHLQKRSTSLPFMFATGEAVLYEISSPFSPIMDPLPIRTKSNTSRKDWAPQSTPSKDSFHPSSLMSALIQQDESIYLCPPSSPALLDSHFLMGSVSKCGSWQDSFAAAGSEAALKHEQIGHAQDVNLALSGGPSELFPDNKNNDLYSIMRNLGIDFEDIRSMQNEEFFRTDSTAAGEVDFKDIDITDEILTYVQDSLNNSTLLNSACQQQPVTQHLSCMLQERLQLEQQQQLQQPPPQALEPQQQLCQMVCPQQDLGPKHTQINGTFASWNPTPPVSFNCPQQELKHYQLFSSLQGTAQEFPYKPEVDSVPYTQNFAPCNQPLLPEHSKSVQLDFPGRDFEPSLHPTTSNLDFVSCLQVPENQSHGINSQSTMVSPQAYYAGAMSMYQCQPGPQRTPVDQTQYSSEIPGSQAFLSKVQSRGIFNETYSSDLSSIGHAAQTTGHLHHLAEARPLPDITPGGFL
The experiment in a line: In vitro assay 3: antagonism in mouse cell line (AHR transactivation, firefly luciferase reporter, kynurenic acid prestimulated). Type of test: cell-based. To be noted: 200 μM kynurenic acid, 20 hours, read-out: AHR Antagonism Mouse IC50. The essentials: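 Mouse cells stably carrying a DRE-driven AHR-inducible firefly luciferase reporter were prestimulated with the endogenous agonist kynurenic acid before compound addition. Luciferase read by SteadyGlo; cells without kynurenic acid served as full-inhibition control, with normalization to positive and negative controls. Repeat tests reported as mean or median.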

Test [2] concerns the target T2, AHR (Homo sapiens, UniProt P35869).
T2 construct: U87 MG glioblastoma cells (ATCC #HTB-14) endogenously expressing AHR; endogenous in cells; host or cells: U87 MG glioblastoma cells (ATCC #HTB-14)
T2 sequence (P35869 11-848): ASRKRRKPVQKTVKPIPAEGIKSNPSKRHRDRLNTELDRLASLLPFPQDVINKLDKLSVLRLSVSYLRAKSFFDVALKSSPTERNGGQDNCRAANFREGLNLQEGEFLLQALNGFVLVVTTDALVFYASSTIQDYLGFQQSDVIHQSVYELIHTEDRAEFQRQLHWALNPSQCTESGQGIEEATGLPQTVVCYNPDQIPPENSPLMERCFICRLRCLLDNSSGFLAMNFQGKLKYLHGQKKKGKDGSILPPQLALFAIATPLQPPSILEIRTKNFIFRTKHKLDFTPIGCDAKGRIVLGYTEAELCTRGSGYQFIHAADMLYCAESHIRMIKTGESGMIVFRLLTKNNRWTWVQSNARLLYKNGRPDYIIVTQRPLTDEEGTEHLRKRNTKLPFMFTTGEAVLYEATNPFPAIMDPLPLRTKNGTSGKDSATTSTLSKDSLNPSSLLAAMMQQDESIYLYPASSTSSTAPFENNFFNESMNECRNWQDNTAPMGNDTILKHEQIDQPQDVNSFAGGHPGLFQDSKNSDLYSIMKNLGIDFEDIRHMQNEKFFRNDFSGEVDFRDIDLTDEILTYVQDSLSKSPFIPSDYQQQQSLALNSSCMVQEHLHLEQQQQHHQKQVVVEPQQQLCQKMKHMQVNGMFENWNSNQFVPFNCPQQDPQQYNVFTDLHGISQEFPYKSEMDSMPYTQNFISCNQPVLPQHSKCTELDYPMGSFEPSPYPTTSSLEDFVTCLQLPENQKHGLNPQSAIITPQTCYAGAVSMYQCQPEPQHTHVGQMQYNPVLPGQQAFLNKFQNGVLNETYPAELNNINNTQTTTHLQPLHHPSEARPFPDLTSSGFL
The experiment in a line: In vitro assay 1: antagonism in human cell line (AHR transactivation, firefly luciferase reporter, kynurenic acid prestimulated). To be noted: AHR Antagonism Human IC50 [M]. It counts as cell-based. The essentials: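 U87 MG + DRE-firefly/constitutive-Renilla stable reporters; kynurenic acid prestim; dual-luc read; Renilla = tox; normalized vs pos/neg controls (pos: 150 μM KYNA + 5 μM staurosporine).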

Setting [3] is: Hepa 1c1c7 cells, firefly luciferase reporter.

Read-outs that look alike come from different tables or passages of the source.

Regarding `CN(C)c1ccc(-c2nc3c4ccccc4nc(N[C@@H]4CCCCNC4=O)n3n2)cc1` [Example 128, (3R)-3-({2-[4-(dimethylamino)phenyl][1,2,4]triazolo[1,5-c]quinazolin-5-yl}amino)azepan-2-one], the concentration for half-maximal inhibition (IC50) amounted to 0.316 nM on AHR [1] (mouse Hepa 1c1c7 cells) and 1.5e-09 M against AHR [2].
Regarding `COc1cccc(-c2nc3c4ccccc4nc(N[C@H](CCS(C)(=O)=O)C(N)=O)n3n2)c1` [Example 113, (2R)-2-{[2-(3-methoxyphenyl)[1,2,4]triazolo[1,5-c]quinazolin-5-yl]amino}-4-(methylsulfonyl)butanamide], the results for the concentration for half-maximal inhibition (IC50) on AHR [1] (mouse Hepa 1c1c7 cells) and on AHR [2] were 719 nM and 1.58e-05 M, respectively.
On to `COc1ccc(-c2nc3c4cccc(S(C)(=N)=O)c4nc(N[C@@H]4CCCCNC4=O)n3n2)cc1` (single isomer, unassigned) [Example 855], for which the IC50 on AHR [1] (setting [3]) was 26.1 nM; on AHR [2] (firefly luciferase reporter), 2.28e-09 M.
With `Cc1nn(C)cc1-c1nc2c3cccc(Cl)c3nc(N[C@@H]3CCCCNC3=O)n2n1` [Example 821, (3R)-3-{[7-chloro-2-(1,3-dimethyl-1H-pyrazol-4-yl)[1,2,4]triazolo[1,5-c]quinazolin-5-yl]amino}azepan-2-one], the IC50 was found to be 0.739 nM on AHR [1] (setting [3]) and 2.98e-10 M at AHR [2] (firefly luciferase reporter).
On to `O=C1NCCCC[C@H]1Nc1nc2c(C(F)(F)F)cccc2c2nc(-c3ccc(F)cc3)nn12` [Example 203, (3R)-3-{[2-(4-fluorophenyl)-7-(trifluoromethyl)[1,2,4]triazolo[1,5-c]quinazolin-5-yl]amino}azepan-2-one], for which the figures for the concentration for half-maximal inhibition (IC50) at AHR [1] (mouse Hepa 1c1c7 cells) and against AHR [2] were 0.48 nM and 6.29e-10 M, respectively.
Take `Cc1n[nH]cc1-c1nc2c3cccc(C(F)(F)F)c3nc(N[C@@H]3CCCCNC3=O)n2n1` [Example 746, (3R)-3-{[2-(3-methyl-1H-pyrazol-4-yl)-7-(trifluoromethyl)[1,2,4]triazolo[1,5-c]quinazolin-5-yl]amino}azepan-2-one]: the IC50 worked out at 45.6 nM on AHR [1] (mouse Hepa 1c1c7 cells) and 7.48e-09 M at AHR [2].
Consider `O=C1NCCNC[C@H]1Nc1nc2c(Cl)cccc2c2nc(-c3cnn(C4CC4)c3)nn12` [Example 966, (6R)-6-{[7-chloro-2-(1-cyclopropyl-1H-pyrazol-4-yl)[1,2,4]triazolo[1,5-c]quinazolin-5-yl]amino}-1,4-diazepan-5-one], for which the IC50 was found to be 9.29 nM at AHR [1] (setting [3]) and 9.02e-09 M against AHR [2] (firefly luciferase reporter).
As for `COCCN(C)C(=O)[C@@H](C)Nc1nc2c(C(F)(F)F)cccc2c2nc(-c3cnn(C)c3)nn12` [Example 878, N-(2-methoxyethyl)-N-methyl-N^2-[2-(1-methyl-1H-pyrazol-4-yl)-7-(trifluoromethyl)[1,2,4]triazolo[1,5-c]quinazolin-5-yl]-D-alaninamide], the half-maximal inhibitory concentration (IC50) at AHR [1] (setting [3]) came to 43.3 nM; against AHR [2] (firefly luciferase reporter), 2.78e-08 M.
As for `O=C1NCCNCC1Nc1nc2cccc(C3CC3)c2c2nc(-c3cccc(F)c3)nn12` (single isomer, unassigned) [Example 300, 6-{[10-cyclopropyl-2-(3-fluorophenyl)[1,2,4]triazolo[1,5-c]quinazolin-5-yl]amino}-1,4-diazepan-5-one], the IC50 on AHR [1] (mouse Hepa 1c1c7 cells) was 6180 nM; at AHR [2], more than 2e-05 M.
With `Cn1cc(-c2nc3c4cccc(Br)c4nc(N[C@H]4CS(=N)(=O)CCNC4=O)n3n2)cn1` (single isomer, unassigned) [Example 857], the half-maximal inhibitory concentration (IC50) at AHR [1] (setting [3]) is 2140 nM; on AHR [2] (firefly luciferase reporter), 4.25e-06 M.
For `COc1ccc(-c2nc3c4cccc(Br)c4nc(N[C@H](C)C(=O)N4C[C@H]5C[C@@H]4CO5)n3n2)cc1` [Example 899, (2R)-2-{[7-bromo-2-(4-methoxyphenyl)[1,2,4]triazolo[1,5-c]quinazolin-5-yl]amino}-1-[(1R,4R)-2-oxa-5-azabicyclo[2.2.1]heptan-5-yl]propan-1-one], the half-maximal inhibitory concentration (IC50) on AHR [1] (setting [3]) came to 0.885 nM; against AHR [2] (firefly luciferase reporter), 1.12e-09 M.
For `C[C@@H](Nc1nc2c(C(F)(F)F)cccc2c2nc(-c3cnn(C)c3)nn12)C(=O)N1CCN(C)CC1` [Example 875, (2R)-1-(4-methylpiperazin-1-yl)-2-{[2-(1-methyl-1H-pyrazol-4-yl)-7-(trifluoromethyl)[1,2,4]triazolo[1,5-c]quinazolin-5-yl]amino}propan-1-one], in that order: 31.5 nM and 1.69e-08 M.
For the compound `Cc1nn(C)c(C)c1-c1nc2c3cccc(C(F)(F)F)c3nc(N[C@@H]3CCCCNC3=O)n2n1` [Example 750, (3R)-3-{[7-(trifluoromethyl)-2-(1,3,5-trimethyl-1H-pyrazol-4-yl)[1,2,4]triazolo[1,5-c]quinazolin-5-yl]amino}azepan-2-one], the IC50 on AHR [1] (mouse Hepa 1c1c7 cells) worked out at 1.41 nM; at AHR [2], 3.56e-09 M.
In the case of `COc1ccc(-c2nc3c4cccc(S(C)(=O)=O)c4nc(N[C@@H]4CNCCNC4=O)n3n2)cc1` [Example 936, (6R)-6-{[7-(methanesulfonyl)-2-(4-methoxyphenyl)[1,2,4]triazolo[1,5-c]quinazolin-5-yl]amino}-1,4-diazepan-5-one], the concentration for half-maximal inhibition (IC50) at AHR [1] (setting [3]) was 66.9 nM; against AHR [2] (firefly luciferase reporter), 1.27e-08 M.
As to `COc1cccc(-c2nc3c4ccccc4nc(NC4CNCCNC4=O)n3n2)c1` (single isomer, unassigned) [Example 117, 6-{[2-(3-methoxyphenyl)[1,2,4]triazolo[1,5-c]quinazolin-5-yl]amino}-1,4-diazepan-5-one], the 50% inhibitory concentration (IC50) was determined as 76.5 nM at AHR [1] (mouse Hepa 1c1c7 cells) and 9.04e-08 M against AHR [2].
With `COc1ccc(-c2nc3c4ccccc4nc(N[C@H](C)C(=O)N4CCN(C(=O)OC(C)(C)C)CC4)n3n2)cc1` [Example 882, tert-butyl 4-{N-[2-(4-methoxyphenyl)[1,2,4]triazolo[1,5-c]quinazolin-5-yl]-D-alanyl}piperazine-1-carboxylate], the results for the IC50 on AHR [1] (setting [3]) and against AHR [2] (firefly luciferase reporter) were 5.13 nM and 5.91e-09 M, respectively.
Regarding `Cc1cc(-c2nc3c4ccccc4nc(N[C@@H]4CCCNC4=O)n3n2)cs1` [Example 354, (3R)-3-{[2-(5-methylthiophen-3-yl)[1,2,4]triazolo[1,5-c]quinazolin-5-yl]amino}piperidin-2-one], the IC50 came out at 78.2 nM at AHR [1] (mouse Hepa 1c1c7 cells) and 4.05e-08 M against AHR [2].
Regarding `CCCCNC(=O)CNc1nc2ccccc2c2nc(-c3ccccc3OC(F)(F)F)nn12` [Example 466, N-butyl-N^2-{2-[2-(trifluoromethoxy)phenyl][1,2,4]triazolo[1,5-c]quinazolin-5-yl}glycinamide], the IC50 at AHR [1] (mouse Hepa 1c1c7 cells) is 107 nM; at AHR [2], 1.26e-07 M.
As for `O=C1NCCCCCC1Nc1nc2ccccc2c2nc(-c3ccccc3OC(F)F)nn12` (stereo not shown) [Example 474, 3-({2-[2-(difluoromethoxy)phenyl][1,2,4]triazolo[1,5-c]quinazolin-5-yl}amino)azocan-2-one], the IC50 on AHR [1] (mouse Hepa 1c1c7 cells) turned out to be 1.37 nM; against AHR [2], 3.11e-09 M.
Regarding `O=C1NCCCC[C@H]1Nc1nc2ccccc2c2nc(-c3ccccc3C(F)(F)F)nn12` [Example 52, (3R)-3-({2-[2-(trifluoromethyl)phenyl][1,2,4]triazolo[1,5-c]quinazolin-5-yl}amino)azepan-2-one], the half-inhibitory concentration (IC50) came out at 3.22 nM at AHR [1] (mouse Hepa 1c1c7 cells) and 1.3e-08 M on AHR [2].
